Measured values reported in patent US5688830A, “Treatment of neuropathic pain” (Syntex (U.S.A.) Inc., priority 1997, dated 1997).

Assays:
[1] = tested on: voltage-gated sodium channels ([3H]BTX binding, rat heart); assay: [3H]BTX binding assay, rat heart membranes
Experimental: (§1) The following assays characterize the interaction of the compounds of Formula I with ligand binding sites on voltage-gated sodium channels.
(§2) Frozen tissues were obtained from Pel-Freez Biologicals (Rogers, AR). Tissues were homogenized in 10 volumes of a Tris-sucrose buffer (10 mM Tris-HCl, 250 mM sucrose, pH 7.4 at 4° C.) using 10 strokes with a glass-glass, hand-held homogenizer. The homogenates were filtered through nylon mesh and then centrifuged at 1,000×g for 15 minutes. The pellets were resuspended in a Hepes buffer (50 mM Hepes, 130 mM choline chloride, 5 mM glucose, 5.4 mM KCl, pH 7.4 at 4° C.). The resuspended pellets were centrifuged at 1,000×g for 15 minutes, resuspended in a Hepes buffer (50 mM Hepes, 130 mM choline chloride, 5 mM glucose, 5.4 mM KCl, pH 7.4 at 25° C.) and, frozen at -70° C. until used in binding assays.
(§3) Cell membranes prepared as in Example 10A above were incubated with 16 nM [^3 H]BTX in 250 μl of Hepes buffer (50 mM Hepes, 130 mM choline chloride, 5 mM glucose, 5.4 mM KCl, pH 7.4 at 25° C.). Nonspecific binding was defined in the presence of 1 mM veratridine. Unless otherwise specified, PbTx (0.1 μM) and LqTx (50 μg/ml) were included in the assays. […] Filters were rinsed with 3×1 ml of ice cold 50 mM Tris-HCl (pH 7.4 at 4° C.) and the bound radioactivity was determined by scintillation counting (Packard Top-count).

[2] = tested on: voltage-gated sodium channels ([3H]BTX binding, rat dorsal root ganglion); assay: [3H]BTX binding assay, rat dorsal root ganglion membranes
Experimental: as §1, §2, §3

## CCNC(C)COc1c(C)cccc1C (racemic) [Formula I racemate, [2-(2,6-dimethylphenoxy)-1-methylethyl]-ethylamine]
[1]
  inhibition of [3H]BTX binding: inhibited
[2]
  inhibition of [3H]BTX binding: inhibited
